{"source": "patent US9995734B2", "about": "“Human T cell line assay for evaluating the immunologic identity of glatiramer acetate preparations” (Mylan Inc., priority 2013, dated 2018)", "key": {"Donor 3 COP T-Cell Lines": {"tested_on": "Donor 3 COP T-Cell Lines", "assay": "ATP proliferation assay (CellTiter Glo), Donor 3 COP T-cell lines, incl. reactivity to non-canonical GA peptides", "format": "cell-based, human", "settings": "for Reactivity (proliferation), Mean: Day 54 of culture; for Mean, ATP proliferation assay: 10 μg/mL"}, "Donor 3 GMA T-Cell Lines": {"tested_on": "Donor 3 GMA T-Cell Lines", "assay": "ATP proliferation assay (CellTiter Glo), Donor 3 GMA T-cell lines, incl. reactivity to non-canonical GA peptides", "format": "cell-based, human", "settings": "for Mean, ATP proliferation assay: 10 μg/mL"}}}
{"sequence": "FFKNIVTPRTPPPSQGK [MBP]", "values": [{"measurement": "Reactivity (proliferation), Mean", "setting": "Donor 3 COP T-Cell Lines; T-cell line 165-B6C, 3 μg/mL antigen, No Antigen 2358", "result": 2205, "unit": "RLU"}, {"measurement": "Reactivity (proliferation), Mean", "setting": "Donor 3 COP T-Cell Lines; T-cell line 165-B6C, 10 μg/mL antigen, No Antigen 2358", "result": 2268, "unit": "RLU"}, {"measurement": "Mean, ATP proliferation assay", "setting": "Donor 3 COP T-Cell Lines; T-cell line 165-B6C, Day 46, after 3 days", "result": 3216, "unit": "RLU"}, {"measurement": "Reactivity (proliferation), Mean", "setting": "Donor 3 COP T-Cell Lines; T-cell line 165-B6C, 100 μg/mL antigen, No Antigen 2358", "result": 2201, "unit": "RLU"}, {"measurement": "Reactivity (proliferation), Mean", "setting": "Donor 3 COP T-Cell Lines; T-cell line 165-B10C, 3 μg/mL antigen, No Antigen 2234", "result": 2176, "unit": "RLU"}, {"measurement": "Reactivity (proliferation), Mean", "setting": "Donor 3 COP T-Cell Lines; T-cell line 165-B10C, 10 μg/mL antigen, No Antigen 2234", "result": 2320, "unit": "RLU"}, {"measurement": "Mean, ATP proliferation assay", "setting": "Donor 3 COP T-Cell Lines; T-cell line 165-B10C, Day 46, after 3 days", "result": 3003, "unit": "RLU"}, {"measurement": "Reactivity (proliferation), Mean", "setting": "Donor 3 COP T-Cell Lines; T-cell line 165-B10C, 100 μg/mL antigen, No Antigen 2234", "result": 2272, "unit": "RLU"}, {"measurement": "Mean, ATP proliferation assay", "setting": "Donor 3 COP T-Cell Lines; T-cell line 165-C4C, Day 39", "result": 1631}, {"measurement": "Proliferation (luminescent ATP assay), Mean", "setting": "Donor 3 COP T-Cell Lines; T-cell line 165-C7C, 10 μg/mL antigen, autologous B-LCL", "result": 278, "unit": "RLU"}, {"measurement": "Mean, ATP proliferation assay", "setting": "Donor 3 COP T-Cell Lines; T-cell line 165-C7C, Day 39", "result": 1673}, {"measurement": "Mean, ATP proliferation assay", "setting": "Donor 3 COP T-Cell Lines; T-cell line 165-D2C, Day 39", "result": 1927}, {"measurement": "Reactivity (proliferation), Mean", "setting": "Donor 3 COP T-Cell Lines; T-cell line 165-D3C, 3 μg/mL antigen, No Antigen 8319", "result": 8037, "unit": "RLU"}, {"measurement": "Reactivity (proliferation), Mean", "setting": "Donor 3 COP T-Cell Lines; T-cell line 165-D3C, 10 μg/mL antigen, No Antigen 8319", "result": 8656, "unit": "RLU"}, {"measurement": "Mean, ATP proliferation assay", "setting": "Donor 3 COP T-Cell Lines; T-cell line 165-D3C, Day 46, after 3 days", "result": 15482, "unit": "RLU"}, {"measurement": "Reactivity (proliferation), Mean", "setting": "Donor 3 COP T-Cell Lines; T-cell line 165-D3C, 100 μg/mL antigen, No Antigen 8319", "result": 8647, "unit": "RLU"}, {"measurement": "Reactivity (proliferation), Mean", "setting": "Donor 3 COP T-Cell Lines; T-cell line 165-D11C, 3 μg/mL antigen, No Antigen 4571", "result": 4348, "unit": "RLU"}, {"measurement": "Reactivity (proliferation), Mean", "setting": "Donor 3 COP T-Cell Lines; T-cell line 165-D11C, 10 μg/mL antigen, No Antigen 4571", "result": 4301, "unit": "RLU"}, {"measurement": "Mean, ATP proliferation assay", "setting": "Donor 3 COP T-Cell Lines; T-cell line 165-D11C, Day 46, after 3 days", "result": 8406, "unit": "RLU"}, {"measurement": "Reactivity (proliferation), Mean", "setting": "Donor 3 COP T-Cell Lines; T-cell line 165-D11C, 100 μg/mL antigen, No Antigen 4571", "result": 4020, "unit": "RLU"}, {"measurement": "Reactivity (proliferation), Mean", "setting": "Donor 3 COP T-Cell Lines; T-cell line 165-E3C, 3 μg/mL antigen, No Antigen 2797", "result": 2898, "unit": "RLU"}, {"measurement": "Reactivity (proliferation), Mean", "setting": "Donor 3 COP T-Cell Lines; T-cell line 165-E3C, 10 μg/mL antigen, No Antigen 2797", "result": 2658, "unit": "RLU"}, {"measurement": "Mean, ATP proliferation assay", "setting": "Donor 3 COP T-Cell Lines; T-cell line 165-E3C, Day 46, after 3 days", "result": 7662, "unit": "RLU"}, {"measurement": "Reactivity (proliferation), Mean", "setting": "Donor 3 COP T-Cell Lines; T-cell line 165-E3C, 100 μg/mL antigen, No Antigen 2797", "result": 2582, "unit": "RLU"}, {"measurement": "Reactivity (proliferation), Mean", "setting": "Donor 3 COP T-Cell Lines; T-cell line 165-F3C, 3 μg/mL antigen, No Antigen 3150", "result": 3369, "unit": "RLU"}, {"measurement": "Reactivity (proliferation), Mean", "setting": "Donor 3 COP T-Cell Lines; T-cell line 165-F3C, 10 μg/mL antigen, No Antigen 3150", "result": 3115, "unit": "RLU"}, {"measurement": "Mean, ATP proliferation assay", "setting": "Donor 3 COP T-Cell Lines; T-cell line 165-F3C, Day 46, after 3 days", "result": 9849, "unit": "RLU"}, {"measurement": "Reactivity (proliferation), Mean", "setting": "Donor 3 COP T-Cell Lines; T-cell line 165-F3C, 100 μg/mL antigen, No Antigen 3150", "result": 3017, "unit": "RLU"}, {"measurement": "Reactivity (proliferation), Mean", "setting": "Donor 3 COP T-Cell Lines; T-cell line 165-F6C, 3 μg/mL antigen, No Antigen 2189", "result": 1960, "unit": "RLU"}, {"measurement": "Reactivity (proliferation), Mean", "setting": "Donor 3 COP T-Cell Lines; T-cell line 165-F6C, 10 μg/mL antigen, No Antigen 2189", "result": 1977, "unit": "RLU"}, {"measurement": "Mean, ATP proliferation assay", "setting": "Donor 3 COP T-Cell Lines; T-cell line 165-F6C, Day 46, after 3 days", "result": 2214, "unit": "RLU"}, {"measurement": "Reactivity (proliferation), Mean", "setting": "Donor 3 COP T-Cell Lines; T-cell line 165-F6C, 100 μg/mL antigen, No Antigen 2189", "result": 3672, "unit": "RLU"}, {"measurement": "Mean, ATP proliferation assay", "setting": "Donor 3 GMA T-Cell Lines; T-cell line 165-B2G, Day 40", "result": 3320}, {"measurement": "Proliferation (luminescent ATP assay), Mean", "setting": "Donor 3 GMA T-Cell Lines; T-cell line 165-B5G, 10 μg/mL antigen, Day 55 of culturing, No Antigen Value 846", "result": 871, "unit": "RLU"}, {"measurement": "Mean, ATP proliferation assay", "setting": "Donor 3 GMA T-Cell Lines; T-cell line 165-B5G, Day 40", "result": 3398}, {"measurement": "Mean, ATP proliferation assay", "setting": "Donor 3 GMA T-Cell Lines; T-cell line 165-C4G, Day 40", "result": 3482}, {"measurement": "Proliferation (luminescent ATP assay), Mean", "setting": "Donor 3 GMA T-Cell Lines; T-cell line 165-C5G, 10 μg/mL antigen, autologous B-LCL", "result": 469, "unit": "RLU"}, {"measurement": "Mean, ATP proliferation assay", "setting": "Donor 3 GMA T-Cell Lines; T-cell line 165-C5G, Day 40", "result": 3401}, {"measurement": "Mean, ATP proliferation assay", "setting": "Donor 3 GMA T-Cell Lines; T-cell line 165-C8G, tested with the Donor 3 COP lines of Table 25", "result": 5279, "unit": "RLU"}, {"measurement": "Mean, ATP proliferation assay", "setting": "Donor 3 GMA T-Cell Lines; T-cell line 165-D8G, Day 40", "result": 6909}, {"measurement": "Proliferation (luminescent ATP assay), Mean", "setting": "Donor 3 GMA T-Cell Lines; T-cell line 165-E7G, 10 μg/mL antigen, autologous B-LCL, Day 55", "result": 2116, "unit": "RLU"}, {"measurement": "Mean, ATP proliferation assay", "setting": "Donor 3 GMA T-Cell Lines; T-cell line 165-E7G, Day 40", "result": 2989}, {"measurement": "Proliferation (luminescent ATP assay), Mean", "setting": "Donor 3 GMA T-Cell Lines; T-cell line 165-E9G, 1 μg/mL antigen, Day 50 of culturing, No Antigen Value 1742", "result": 1527, "unit": "RLU"}, {"measurement": "Proliferation (luminescent ATP assay), Mean", "setting": "Donor 3 GMA T-Cell Lines; T-cell line 165-E9G, 3 μg/mL antigen, Day 50 of culturing, No Antigen Value 1742", "result": 1428, "unit": "RLU"}, {"measurement": "Proliferation (luminescent ATP assay), Mean", "setting": "Donor 3 GMA T-Cell Lines; T-cell line 165-E9G, 10 μg/mL antigen, autologous B-LCL", "result": 163, "unit": "RLU"}, {"measurement": "Mean, ATP proliferation assay", "setting": "Donor 3 GMA T-Cell Lines; T-cell line 165-E9G, Day 40", "result": 2892}, {"measurement": "Proliferation (luminescent ATP assay), Mean", "setting": "Donor 3 GMA T-Cell Lines; T-cell line 165-E9G, 30 μg/mL antigen, Day 50 of culturing, No Antigen Value 1742", "result": 1208, "unit": "RLU"}, {"measurement": "Proliferation (luminescent ATP assay), Mean", "setting": "Donor 3 GMA T-Cell Lines; T-cell line 165-E9G, 10 μpg/mL antigen, Day 50 of culturing, No Antigen Value 1742", "result": 1247, "unit": "RLU"}, {"measurement": "Mean, ATP proliferation assay", "setting": "Donor 3 GMA T-Cell Lines; T-cell line 165-F2G, Day 40", "result": 2345}, {"measurement": "Proliferation (luminescent ATP assay), Mean", "setting": "Donor 3 GMA T-Cell Lines; T-cell line 165-F5G, 10 μg/mL antigen, autologous B-LCL", "result": 138, "unit": "RLU"}, {"measurement": "Mean, ATP proliferation assay", "setting": "Donor 3 GMA T-Cell Lines; T-cell line 165-F5G, Day 40", "result": 2904}, {"measurement": "Mean, ATP proliferation assay", "setting": "Donor 3 GMA T-Cell Lines; T-cell line 165-F8G, Day 40", "result": 3366}, {"measurement": "Proliferation (luminescent ATP assay), Mean", "setting": "Donor 3 GMA T-Cell Lines; T-cell line 165-F10G, 10 μg/mL antigen, autologous B-LCL", "result": 831, "unit": "RLU"}, {"measurement": "Mean, ATP proliferation assay", "setting": "Donor 3 GMA T-Cell Lines; T-cell line 165-F10G, Day 40", "result": 3585}, {"measurement": "Proliferation (luminescent ATP assay), Mean", "setting": "Donor 3 GMA T-Cell Lines; T-cell line 165-H11G, 10 μg/mL antigen, autologous B-LCL", "result": 323, "unit": "RLU"}, {"measurement": "Mean, ATP proliferation assay", "setting": "Donor 3 GMA T-Cell Lines; T-cell line 165-H11G, Day 40", "result": 2925}]}
